Patent US20230075965A1, “USES OF BIOMARKERS FOR IMPROVING IMMUNOTHERAPY” (Dana-Farber Cancer Institute, Inc., priority 2020, published 2023)

Columns and labels:
[1] = tested on: HLA-E on HT29 and SW620 cells; experiment: Flow cytometry of surface HLA-E after IFN-gamma, STAT1 KO vs control KO; format: cell-based, human; conditions: HT29 and SW620, 5 ng/ml IFN-gamma overnight
Protocol: (§1) HT29 and SW620 cells were transduced with sgRNAs against STAT1 (or control OR genes) and treated overnight with vs. without 5 ng/ml IFN-gamma prior to staining. […] FIG. 6D CTG cytotoxicity assays (see Methods) for HT29 cells with HLA-E KO compared with control KO (data are represented as CTG cytotoxicity assays for HT29, SW620 cells with sgRNA against STAT1 (left) or HLA-E (right) or control KO (using OR10A2) at E:T 1:1, using 3-4 donors per line, n=7 different co-cultures, each co-culture was conducted in 6 replicates. (STAT1 p=7.24E-6, HLA-E p=2.27E-7, Mann-Whitney two sided test n=42). Data are represented as mean±SD). […] Pools of cells of the PRISM DNA-barcoded cell lines were labeled with a fluorescent conjugated antibody, sorted by flow cytometer into four bins based on its fluorescence levels and then sequenced to quantify the read counts of each barcode (and thus presence of cells from each cell line) in each bin. Surface protein expression scores were calculated per line from the read counts in each bin (see Method). […] Upper right: Normalized read counts of each bin sorted by SPIN. In view of the dynamic range of the antibody staining, the four bins were combined into two; reads from the top 2 bins with highest expression are labeled ‘High’ and reads from the 2 bins with lower staining are labeled ‘Low’. Middle right: calculated protein scores. […]

[2] = tested on: HLA-A/B/C on HT29 and SW620 cells; experiment: Flow cytometry of surface HLA-A/B/C after IFN-gamma, STAT1 KO vs control KO; format: cell-based, human; conditions: HT29 and SW620, 5 ng/ml IFN-gamma overnight
Protocol: as §1

For “IFN-gamma: interferon-gamma used to stimulate HLA-E and MHC class I expression on tumor cells”, the “HLA-E surface expression upon IFN-gamma stimulation” value [1] was “upregulated in control KO, but not with STAT1 KO” and the “HLA-A/B/C surface expression upon IFN-gamma stimulation” value [2] was “further increased with IFN-gamma stimulation in the control KO, but not in STAT1 KO cells”.
